Columns and labels:
[1] = target: T1, E. coli class Ia RNR α subunit (W28A-α2) (Escherichia coli, UniProt P00452, W28A); assay: […] Å crystal structure with ATP; type: binding
T1 construct: gene nrdA; His6-W28A-α2
T1 sequence (P00452 1-761 W28A): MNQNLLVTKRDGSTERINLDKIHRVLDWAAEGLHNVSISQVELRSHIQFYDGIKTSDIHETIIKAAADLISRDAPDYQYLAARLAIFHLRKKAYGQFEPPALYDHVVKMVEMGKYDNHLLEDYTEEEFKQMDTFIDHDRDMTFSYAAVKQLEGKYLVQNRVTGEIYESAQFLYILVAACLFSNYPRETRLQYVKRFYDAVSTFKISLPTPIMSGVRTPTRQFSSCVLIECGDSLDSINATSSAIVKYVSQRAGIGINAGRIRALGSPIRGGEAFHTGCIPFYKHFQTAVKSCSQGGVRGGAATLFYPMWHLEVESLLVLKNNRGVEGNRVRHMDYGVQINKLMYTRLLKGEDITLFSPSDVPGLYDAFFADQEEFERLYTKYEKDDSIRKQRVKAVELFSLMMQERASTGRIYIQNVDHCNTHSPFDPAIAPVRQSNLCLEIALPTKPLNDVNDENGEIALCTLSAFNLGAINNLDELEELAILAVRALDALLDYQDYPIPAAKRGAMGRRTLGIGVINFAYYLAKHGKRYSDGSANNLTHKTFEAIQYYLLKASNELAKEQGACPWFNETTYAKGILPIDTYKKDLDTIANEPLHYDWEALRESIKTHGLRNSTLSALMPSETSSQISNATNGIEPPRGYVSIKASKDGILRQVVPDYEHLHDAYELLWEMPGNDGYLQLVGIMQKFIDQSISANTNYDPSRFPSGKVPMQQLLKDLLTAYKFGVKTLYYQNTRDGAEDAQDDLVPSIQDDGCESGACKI
T1 sequence (P69924 2-376 partner): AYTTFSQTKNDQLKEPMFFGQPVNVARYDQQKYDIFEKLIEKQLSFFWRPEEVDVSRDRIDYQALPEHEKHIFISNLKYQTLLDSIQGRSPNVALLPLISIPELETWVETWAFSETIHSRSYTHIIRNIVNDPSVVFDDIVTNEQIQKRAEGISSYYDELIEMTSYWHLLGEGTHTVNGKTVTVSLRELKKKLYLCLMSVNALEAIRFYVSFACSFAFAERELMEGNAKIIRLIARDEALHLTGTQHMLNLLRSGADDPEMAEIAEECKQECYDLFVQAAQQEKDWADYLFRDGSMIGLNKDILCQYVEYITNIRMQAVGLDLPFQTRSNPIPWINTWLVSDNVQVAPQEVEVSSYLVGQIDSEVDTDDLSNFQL

[2] = target: T1, E. coli class Ia RNR α subunit (W28A-α2); assay: […] Å crystal structure W28A-α2-dATP/GTP; inhibition in activity assay; type: binding

SMILES: Nc1ccn([C@@H]2O[C@H](COP(=O)(O)OP(=O)(O)O)[C@@H](O)[C@H]2O)c(=O)n1 [CDP]
- 2.6 Å crystal structure with ATP [1]: provides a higher-resolution picture of the active site bound to the CDP/ATP substrate/effector pair

SMILES: Nc1ncnc2c1ncn2[C@H]1C[C@H](O)[C@@H](COP(=O)(O)OP(=O)(O)OP(=O)(O)O)O1 [dATP]
- 3.55 Å crystal structure W28A-α2-dATP/GTP; inhibition in activity assay [2]: dATP was placed in the specificity site based on omit maps.

Reference: article PMC11447812, “How ATP and dATP Act as Molecular Switches to Regulate Enzymatic Activity in the Prototypical Bacterial Class Ia Ribonucleotide Reductase” (Biochemistry, 2024)
